Here are results for 23 compounds from PubChem BioAssay AID256 (DTP/NCI, 2004).

In this assay the test system is CD2F1 mice, L1210 leukemia ip, survival T/C. Put plainly: NCI In Vivo Anticancer Drug Screen. Data for tumor model L1210 Leukemia (intraperitoneal) in CD2F1 (CDF1) mice. The following applies: higher = longer survival. In short, it runs like this:
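Mice carrying a transplanted tumor received test compound or vehicle alone. The value is the measurement in the treated group divided by that in the vehicle-treated control group.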

Where [1] appears, read: endpoint: mean survival time, dose: 50.0 mg/kg/injection, schedule: Q04DX003 (ip), vehicle: saline.
Where [2] appears, read: endpoint: mean survival time, dose: 200.0 mg/kg/injection, schedule: Q01DX009 (ip), vehicle: saline with Tween-80.
[3] abbreviates: endpoint: mean survival time, dose: 400.0 mg/kg/injection, schedule: Q01DX009 (ip), vehicle: saline with Tween-80.
Setting [4] is: endpoint: mean survival time, dose: 12.5 mg/kg/injection, schedule: Q01DX009 (ip), vehicle: saline with Tween-80.
Where [5] appears, read: endpoint: mean survival time, dose: 25.0 mg/kg/injection, schedule: Q01DX009 (ip), vehicle: saline with Tween-80.
Setting [6] is: endpoint: mean survival time, dose: 50.0 mg/kg/injection, schedule: Q01DX009 (ip), vehicle: saline with Tween-80.
Where [7] appears, read: endpoint: mean survival time, dose: 100.0 mg/kg/injection, schedule: Q01DX009 (ip), vehicle: saline with Tween-80.
The mark [8] stands for this setting: endpoint: mean survival time, dose: 100.0 mg/kg/injection, schedule: Q04DX003 (ip), vehicle: saline with Tween-80.
[9] abbreviates: endpoint: mean survival time, dose: 200.0 mg/kg/injection, schedule: Q04DX003 (ip), vehicle: saline with Tween-80.
Where [10] appears, read: endpoint: mean survival time, dose: 400.0 mg/kg/injection, schedule: Q04DX003 (ip), vehicle: saline with Tween-80.
[11] abbreviates: endpoint: mean survival time, dose: 100.0 mg/kg/injection, schedule: Q04DX002 (ip), vehicle: saline with Tween-80.
The mark [12] stands for this setting: endpoint: mean survival time, dose: 200.0 mg/kg/injection, schedule: Q04DX002 (ip), vehicle: saline with Tween-80.
Setting [13] is: endpoint: mean survival time, dose: 400.0 mg/kg/injection, schedule: Q04DX002 (ip), vehicle: saline with Tween-80.

Where “and” joins values, the source holds several entries; their conditions need not be identical. Identical values can stand only once. Inconclusive results and toxic doses are left out.

Regarding `CCc1ccc(OC(C)=O)cc1`, the T/C by setting is: (endpoint: mean survival time, dose: 50.0 mg/kg/injection, schedule: Q01DX009 (ip), vehicle: Klucel (hydroxypropylcellulose) (HPC)) 98 % of control; (endpoint: mean survival time, dose: 100.0 mg/kg/injection, schedule: Q01DX009 (ip), vehicle: Klucel (hydroxypropylcellulose) (HPC)) 98 % of control; (endpoint: mean survival time, dose: 200.0 mg/kg/injection, schedule: Q01DX009 (ip), vehicle: Klucel (hydroxypropylcellulose) (HPC)) 90 % of control.
On to `CC1(C)CC[N+]1(C)C`, for which the T/C (endpoint: mean survival time, dose: 12.5 mg/kg/injection, schedule: Q04DX003 (ip), vehicle: saline) was 96 % of control; the T/C (endpoint: mean survival time, dose: 25.0 mg/kg/injection, schedule: Q04DX003 (ip), vehicle: saline) is 102 % of control; the T/C under setting [1] is 97 % of control.
For the compound `O=C(CCBr)NCNC(=O)CCBr`, the T/C is, setting by setting: under setting [2], 152 % of control; under setting [3], 101 % of control.
In the case of `Nc1nc2ccc(NCc3ccc(C(=O)NC(CCC(=O)O)C(=O)O)cc3)cc2c(=O)[nH]1` (configuration not stated), the T/C (endpoint: median survival time, dose: 6.25 mg/kg/injection, schedule: Q01DX009 (ip), vehicle: saline with Tween-80) was 100 % of control and 101 % of control; the T/C (endpoint: median survival time, dose: 12.5 mg/kg/injection, schedule: Q01DX009 (ip), vehicle: saline with Tween-80) was 100 % of control and 108 % of control (2×); the T/C (endpoint: median survival time, dose: 25.0 mg/kg/injection, schedule: Q01DX009 (ip), vehicle: saline with Tween-80) is 115 % of control and 118 % of control and 119 % of control; the T/C (endpoint: median survival time, dose: 50.0 mg/kg/injection, schedule: Q01DX009 (ip), vehicle: saline with Tween-80) was 155 % of control.
For `Cc1cc(C)c(C#[N+][O-])c(C)c1`, the T/C was 97 % of control under setting [4], 94 % of control under setting [5] and 91 % of control under setting [6].
For `O=C(Nc1ccc(Oc2ccc(Cl)c(Cl)c2)c(Cl)c1)Nc1cc(Cl)c(Cl)cc1S(=O)(=O)O`, the T/C was 96 % of control (endpoint: mean survival time, dose: 100.0 mg/kg/injection, schedule: Q01DX001 (ip), vehicle: saline sonified); 97 % of control under setting [7]; 93 % of control (endpoint: mean survival time, dose: 200.0 mg/kg/injection, schedule: Q01DX001 (ip), vehicle: saline sonified); 96 % of control (endpoint: mean survival time, dose: 400.0 mg/kg/injection, schedule: Q01DX001 (ip), vehicle: saline sonified).
With `F[Si](c1ccccc1)(c1cccc2ccccc12)c1cccc2ccccc12`, the T/C is, setting by setting: under setting [7], 96 % of control; under setting [2], 100 % of control; under setting [3], 95 % of control.
`O=C(O)Cc1ccc(Cl)cc1`: the T/C reads like this: (endpoint: mean survival time, dose: 75.0 mg/kg/injection, schedule: Q01DX009 (ip), vehicle: saline with Tween-80) 96 % of control; (endpoint: mean survival time, dose: 150.0 mg/kg/injection, schedule: Q01DX009 (ip), vehicle: saline with Tween-80) 102 % of control; (endpoint: mean survival time, dose: 300.0 mg/kg/injection, schedule: Q01DX009 (ip), vehicle: saline with Tween-80) 88 % of control.
As for `Cc1ccc(N=Cc2cc(I)cc(I)c2O)cc1.Cc1ccc(N=Cc2cc(I)cc(I)c2O)cc1.[Co]`, the T/C was 87 % of control under setting [1]; 104 % of control (endpoint: mean survival time, dose: 100.0 mg/kg/injection, schedule: Q04DX003 (ip), vehicle: saline); 96 % of control (endpoint: mean survival time, dose: 200.0 mg/kg/injection, schedule: Q04DX003 (ip), vehicle: saline).
`O=C(CCl)c1cc(Cl)c(O)c(Cl)c1`: the T/C (endpoint: mean survival time, dose: 50.0 mg/kg/injection, schedule: Q01DX001 (ip), vehicle: carboxymethylcellulose (CMC)) is 97 % of control.
As to `O=S(=O)(CCBr)CCBr`, the T/C reads like this: under setting [7], 95 % of control; under setting [8], 109 % of control; under setting [2], 86 % of control; under setting [9], 107 % of control; under setting [3], 100 % of control; under setting [10], 88 % of control.
Regarding `CC(=O)OCCN1C(=O)c2ccccc2C1=O`, the T/C reads like this: (endpoint: mean survival time, dose: 100.0 mg/kg/injection, schedule: Q04DX003 (ip), vehicle: Klucel (hydroxypropylcellulose) (HPC)) 97 % of control; (endpoint: mean survival time, dose: 200.0 mg/kg/injection, schedule: Q04DX003 (ip), vehicle: Klucel (hydroxypropylcellulose) (HPC)) 94 % of control; (endpoint: mean survival time, dose: 400.0 mg/kg/injection, schedule: Q04DX003 (ip), vehicle: Klucel (hydroxypropylcellulose) (HPC)) 102 % of control.
Turning to `CC1=CCCC(C)C2CC(C(C)(C)O)CC12` (configuration not stated), the T/C runs as follows: (endpoint: mean survival time, dose: 100.0 mg/kg/injection, schedule: Q01DX001 (ip), vehicle: saline) 93 % of control; (endpoint: mean survival time, dose: 200.0 mg/kg/injection, schedule: Q01DX001 (ip), vehicle: saline) 91 % of control; (endpoint: mean survival time, dose: 400.0 mg/kg/injection, schedule: Q01DX001 (ip), vehicle: saline) 95 % of control.
`N#Cc1ccc([N+](=O)[O-])o1`: the T/C was 104 % of control under setting [4]; 101 % of control under setting [5]; 102 % of control (endpoint: mean survival time, dose: 25.0 mg/kg/injection, schedule: Q04DX003 (ip), vehicle: saline with Tween-80); 92 % of control under setting [6]; 96 % of control (endpoint: mean survival time, dose: 50.0 mg/kg/injection, schedule: Q04DX003 (ip), vehicle: saline with Tween-80).
On to `CCC(CNCCC(=O)O)(C(=O)O)C(=O)O`, for which the T/C was 98 % of control under setting [11], 98 % of control under setting [12] and 90 % of control under setting [13].
With `CCOC(=O)C(C)(C)CN1COCC1(C)C`, the T/C is 112 % of control (endpoint: mean survival time, dose: 100.0 mg/kg/injection, schedule: Q01DX001 (ip), vehicle: saline with Tween-80) and 109 % of control (endpoint: mean survival time, dose: 200.0 mg/kg/injection, schedule: Q01DX001 (ip), vehicle: saline with Tween-80).
As for `O=C1NC(=O)C(C2CC2)(C2CC2)N1`, the T/C reads like this: under setting [7], 95 % of control; under setting [2], 94 % of control; under setting [3], 96 % of control.
Turning to `CC1(C)N=C(N)N=C(N)N1c1ccc(CNC(=O)Nc2cccc(S(=O)(=O)F)c2)cc1`, the T/C reads like this: (endpoint: mean survival time, dose: 6.25 mg/kg/injection, schedule: Q01DX009 (ip), vehicle: saline) 115 % of control; (endpoint: mean survival time, dose: 75.0 mg/kg/injection, schedule: Q01DX001 (ip), vehicle: other) 104 % of control; (endpoint: mean survival time, dose: 150.0 mg/kg/injection, schedule: Q01DX001 (ip), vehicle: other) 107 % of control; (endpoint: mean survival time, dose: 300.0 mg/kg/injection, schedule: Q01DX001 (ip), vehicle: other) 115 % of control.
Take `Cc1ccc(N2CC=C(c3ccccc3)OP2(=O)N(CCCl)CCCl)cc1` (configuration not stated): the T/C (endpoint: mean survival time, dose: 31.25 mg/kg/injection, schedule: Q01DX001 (ip), vehicle: saline) is 100 % of control; the T/C (endpoint: mean survival time, dose: 62.5 mg/kg/injection, schedule: Q01DX001 (ip), vehicle: saline) is 102 % of control; the T/C (endpoint: mean survival time, dose: 125.0 mg/kg/injection, schedule: Q01DX001 (ip), vehicle: saline) is 100 % of control; the T/C (endpoint: mean survival time, dose: 250.0 mg/kg/injection, schedule: Q01DX001 (ip), vehicle: saline) is 100 % of control; the T/C (endpoint: mean survival time, dose: 500.0 mg/kg/injection, schedule: Q01DX001 (ip), vehicle: saline) is 100 % of control.
Take `O=c1cc(Cl)ncn1C1OC(CO)C(O)C1O` (configuration not stated): the T/C runs as follows: (endpoint: median survival time, dose: 12.5 mg/kg/injection, schedule: Q01DX005 (ip), vehicle: saline) 108 % of control; (endpoint: median survival time, dose: 25.0 mg/kg/injection, schedule: Q01DX005 (ip), vehicle: saline) 104 % of control; (endpoint: median survival time, dose: 50.0 mg/kg/injection, schedule: Q01DX005 (ip), vehicle: saline) 95 % of control; (endpoint: median survival time, dose: 100.0 mg/kg/injection, schedule: Q01DX005 (ip), vehicle: saline) 97 % of control; (endpoint: median survival time, dose: 200.0 mg/kg/injection, schedule: Q01DX005 (ip), vehicle: saline) 97 % of control.
As to `COc1ccc(OCCCn2cc(-c3ccc(Cl)c(Cl)c3)c(N)nc2=O)cc1`, the T/C was 97 % of control under setting [8], 92 % of control under setting [9] and 94 % of control under setting [10].
In the case of `COc1ccc(C(=O)C(=O)c2ccccc2Cl)cc1`, the T/C is 98 % of control under setting [11], 102 % of control under setting [12] and 95 % of control under setting [13].
Regarding `Cc1c2ccccc2c(CSCCC(N)C(=O)O)c2ccccc12` (configuration not stated), the T/C is, setting by setting: under setting [8], 96 % of control; under setting [9], 93 % of control; under setting [10], 90 % of control.
